Measured values reported in patent US7928090B2, “External preparation composition” (Lion Corporation, priority 2002, dated 2011).

Tests used:
[1] = tested on: back skin of hairless mice irradiated with UVB; experiment: Coarse texture-improving test; type: in vivo, hairless mice (hos: HR-1); settings: 0.05% in ethanol/propylene glycol (7:3), 100 μL, 4 weeks; texture intersection points relative to non-irradiated group (control 24)
Experimental: (§1) Four (4) hairless mice per 1 group (hos: HR-1, 10 weeks of age, female) were irradiated on the back skin once a day with UVB at 40 mJ/cm^2 three times a week over a period of 6 weeks. After finishing irradiation, each 100 μL of an ethanol/propylene glycol (7:3) solution containing 0.05% of various acyl glucosamine derivatives shown in the following Table 4 or an ethanol/propylene glycol (7:3) solution as a control was applied on the mouse back in a frequency of once a day and five times a week over 4 weeks.
After finishing application, a replica agent (brand name SILFLO®; manufactured by UK FLEXICO DEVELOPMENTS LTD.) was used to obtain a replica of a mouse back skin. A replica of a UV-non-irradiated group (4 heads) was obtained as a control in the same manner.
The enlarged photographs of the respective replicas were taken through a macro lens (magnification: four times), and the photographs were used to evaluate “coarsening of the texture”.
The coarseness of the texture was defined by a “number of texture intersection point”, wherein a point in which three or more sulci cutis are joined is counted as one intersection point, and the number of the texture intersection points present in a square of 1 cm×1 cm was counted on the replica photograph.
An average point for the respective groups was calculated, and the texture-improving rate was calculated according to the following equation (III). Texture-improving rate (%)=[(number of texture intersection of applied group)/(number of texture intersection point of non-irradiated group)]×100 (III)

[2] = tested on: acne patients; experiment: Acne-improvement evaluation; type: in vivo, human; settings: essence with 0.05%, one month; for Evaluation X (worsened), number of subjects / Evaluation Δ (no change), number of subjects / Evaluation ⊚ (notably improved), number of subjects / Evaluation ◯ (improved), number of subjects: applied on face several times a day; for Acne treating effect: percentage of subjects rated improved or better
Experimental: Prepared was an essence for acne shown in the following composition example in which 0.05% of various acyl glucosamine derivatives shown in the following Table 6 was blended. An essence which was not blended with an acyl glucosamine derivative was prepared as a control.
Sixty acne patients were picked up as subjects to apply everyday the respective essences on the faces thereof several times a day, and the therapeutic effect against the acnes was visually evaluated a month later according to four degrees of the following evaluation criteria.
In the four degree evaluation described above, improvement (∘) or better effect (⊚) was regarded as “effective for treating acnes”, and the subjects showing a treating effect were shown by a numerical value (percentage).

[3] = tested on: back skin of hairless mice irradiated with UVB; experiment: Wrinkle-improving test; type: in vivo, hairless mice (hos: HR-1); settings: 0.05% in ethanol/propylene glycol (7:3), 100 μL once a day, five times a week, 8 weeks; versus control group
Experimental: as §1, with “at 50” for “at 40”, “mJ/cm^2 five” for “mJ/cm^2 three”, “of 10” for “of 6”, “Table 3” for “Table 4 or an ethanol/propylene glycol (7:3) solution as a control”, “over 8” for “over 4”
After finishing application for 8 weeks, the degree of wrinkles was visually evaluated according to the following evaluation criteria and calculation equation. A control group applied with the ethanol/propylene glycol (7:3) solution was evaluated as a control in the same manner.
Evaluation Criteria of the Degree of Wrinkles:
Evaluation point 0: a lot of fine striations is present on the back and the flank; fine striations run in a direction from the head to the tail; and the striations appear or disappear with the motion of the mouse.
Evaluation point 1: all fine striations along the spine are not observed; a few shallow and coarse wrinkles run perpendicularly to the head-to-tail direction; and the striations appear or disappear with the motion of the mouse.
The respective bodies were evaluated by an evaluation point of a 0.5 unit to calculate an average point for the respective groups, and the wrinkle-improving rate was calculated for the respective groups according to the following equation (II). Wrinkle-improving rate (%)=[(average value of the control group−average value of a glucosamine derivative-applied group)/(average value of the control group)]×100 (II)

[4] = tested on: skin roughness in the inside of a forearm of a human being; experiment: Skin roughness-improving test (SDS-induced skin roughness); type: in vivo; settings: hydrophilic ointment with 0.05%, twice a day, 3 days; conductance relative to ointment with no tested substance = 100
Experimental: A 10% SDS solution was used to artificially form a skin roughness in the inside of a forearm of a human being, and a hydrophilic ointment blended with 0.05% of various acyl glucosamine derivatives shown in the following Table 5 was applied thereon twice a day.
The skin roughness-improving degree observed 3 days later after application was evaluated using a change in a stratum corneum water content as an index. The stratum corneum water content is measured in terms of a conductance (μS). The improving degree was shown by a relative value, wherein the conductance observed when applying the hydrophilic ointment blended with no acyl glucosamine derivative was set at 100, and the skin roughness-improving rate was calculated according to the following equation (IV). Skin roughness-improving rate (%)=[(conductance observed when applying the ointment blended with the tested substance)/(conductance observed when applying the ointment blended with no tested substance)]×100 (IV)

[5] = tested on: pigmentation on the backs of color guinea pigs; experiment: Whitening evaluation (UV-induced pigmentation); type: in vivo; design: key: +++: notably improved; ++: improved; +: a little improved; ±: no change; settings: 0.05% in ethanol/propylene glycol (7:3), 30 μL once a day, five times a week, 4 weeks; visual change in pigmentation
Experimental: Back body hair of color guinea pigs were shaved by means of a hair clipper and a shaver, and they were irradiated with UV rays once a day, 4 times a week and 8 times in total, whereby 4 parts of pigmentation having an area of about 2.25 cm^2 were formed on the backs of the respective guinea pigs.
Each 30 μL of an ethanol/propylene glycol (7:3) solution containing 0.05% of various acyl glucosamine derivatives shown in the following Table 7 was applied thereon in a frequency of once a day and five times a week over 4 weeks, and a change in the pigmentation was visually evaluated according to four degrees of the following evaluation criteria. The solution containing no acyl glucosamine derivative was used for a comparative example.

[6] = tested on: guinea pig skin; experiment: Continuous irritative test of guinea pig skin (Draize method); type: in vivo, guinea pig (Hartley series); settings: Table 1; 0.5% in ethanol/propylene glycol (7:3), 50 μL once a day, 3 days straight; total of erythema and edema, full marks 8 points
Experimental: Each left and right two spots (4 spots/head) of applying parts having a frame of 2 cm×2 cm were provided on the back of a shaved guinea pig (Hartley series, 7 weeks of age, female, N=10), and each 50 μL of an ethanol/propylene glycol (7:3) solution containing 0.5% of the respective acyl glucosamine derivatives shown in the following Table 1 was applied once a day on the respective frames.
A skin irritative score after application for 3 days straight was evaluated according to the following evaluation criteria (Draize method). The above irritative score was shown by the total points (full marks: 8 points) of erythema and edema.
Evaluation Criteria of Skin Irritative Score:
3: middle to strong erythema
4: very strong erythema to crust
1: very slight edema formation
2: slight edema formation
3: middle edema formation
4: strong edema formation

## CC(C=CC1=C(C)CCCC1(C)C)=CC=CC(C)=CC(=O)N[C@H]1C(O)O[C@H](CO)[C@@H](O)[C@@H]1O (single isomer, unassigned) [N-retinoyl-D-glucosamine]
[1]
  Texture-improving rate: 75%
[2]
  Evaluation X (worsened), number of subjects: 0
  Evaluation Δ (no change), number of subjects: 0
  Evaluation ⊚ (notably improved), number of subjects: 4
  Evaluation ◯ (improved), number of subjects: 2
  Acne treating effect: 100%
[3]
  Wrinkle-improving rate: 89%
[4]
  Skin roughness-improving rate: 127%
[5]
  Whitening-improving effect: +++

## CCCCCCCCCCCCCCCCOCCOCCOC(=O)N[C@H]1C(O)O[C@H](CO)[C@@H](O)[C@@H]1O (stereo partly drawn) [N-POE (2) hexadecyletheroxycarbonyl-D-glucosamine]
[1]
  Texture-improving rate: 89%
[2]
  Evaluation X (worsened), number of subjects: 0
  Evaluation Δ (no change), number of subjects: 2
  Evaluation ⊚ (notably improved), number of subjects: 0
  Evaluation ◯ (improved), number of subjects: 3
  Acne treating effect: 60%
[3]
  Wrinkle-improving rate: 72%
[4]
  Skin roughness-improving rate: 139%
[5]
  Whitening-improving effect: ++
[6]
  Draize score: 0.1 points

## CCCCCCCCCCCCCCCCCCOCCOCCOCCOCCOCCOC(=O)N[C@H]1C(O)O[C@H](CO)[C@@H](O)[C@@H]1O (stereo partly drawn) [N-POE (5) octadecyletheroxycarbonyl-D-glucosamine]
[1]
  Texture-improving rate: 92%
[2]
  Evaluation X (worsened), number of subjects: 0
  Evaluation Δ (no change), number of subjects: 3
  Evaluation ⊚ (notably improved), number of subjects: 0
  Evaluation ◯ (improved), number of subjects: 2
  Acne treating effect: 40%
[3]
  Wrinkle-improving rate: 73%
[4]
  Skin roughness-improving rate: 128%
[5]
  Whitening-improving effect: ++
[6]
  Draize score: 0.2 points

## CCCCCCCCCCCCCCCCCCCCCCOCCOCCOCCOCCOCCOCCOCCOCCOCCOCCOC(=O)N[C@H]1C(O)O[C@H](CO)[C@@H](O)[C@@H]1O (stereo partly drawn) [N-POE (10) docosyletheroxycarbonyl-D-glucosamine]
[1]
  Texture-improving rate: 88%
[2]
  Evaluation X (worsened), number of subjects: 0
  Evaluation Δ (no change), number of subjects: 3
  Evaluation ⊚ (notably improved), number of subjects: 0
  Evaluation ◯ (improved), number of subjects: 2
  Acne treating effect: 40%
[3]
  Wrinkle-improving rate: 82%
[4]
  Skin roughness-improving rate: 138%
[5]
  Whitening-improving effect: ++
[6]
  Draize score: 0.1 points

## CCCCCCCC/C=C\CCCCCCCC(=O)N[C@H]1C(O)O[C@H](CO)[C@@H](O)[C@@H]1O (stereo partly drawn) [N-oleoyl-D-glucosamine]
[2]
  Evaluation X (worsened), number of subjects: 0
  Evaluation Δ (no change), number of subjects: 2
  Evaluation ⊚ (notably improved), number of subjects: 0
  Evaluation ◯ (improved), number of subjects: 3
[6]
  Draize score: 0.2 points
